Calls of active or inactive are those of the source. No cut-off for these calls is given here.
Legend:
[1] = Lipophilicity, log P of the compound; type: physicochemical; details: octanol/water
HepG2 = assay: Upregulation of LDLR mRNA expression in human HepG2 cells by RT-PCR; type: functional, cell-based
Rattus norvegicus [2] = assay: Hypolipidemic activity in high fat high cholesterol diet fed Sprague-Dawley rat hyperlipidemic model assessed as reduction in LDL cholesterol 100 mg/kg, po qd for 28 days; set-up: scale not given: the % may be the effect or the level left
Rattus norvegicus [3] = assay: Hypolipidemic activity in high fat high cholesterol diet fed Sprague-Dawley rat hyperlipidemic model assessed as reduction in total cholesterol 100 mg/kg, po qd for 28 days; set-up: scale not given: the % may be the effect or the level left
Rattus norvegicus [4] = assay: Toxicity in high fat high cholesterol diet fed Sprague-Dawley rat hyperlipidemic model assessed as weight loss at 100 mg/kg, po qd for 28 days; details: in vivo, 672 h
Rattus norvegicus [5] = assay: Toxicity in high fat high cholesterol diet fed Sprague-Dawley rat hyperlipidemic model assessed as liver of kidney function abnormalities at 100 mg/kg, po qd for 28 days; details: in vivo, 672 h
Rattus norvegicus [6] = assay: Toxicity in high fat high cholesterol diet fed Sprague-Dawley rat hyperlipidemic model assessed as reduction in food intake at 100 mg/kg, po qd for 28 days; details: in vivo, 672 h

Structure (SMILES) | logP [1] | Activity (HepG2) | other results
COc1ccc2cc3[n+](cc2c1OC(=O)c1ccccc1)CCc1cc2c(cc1-3)OCO2 | 0.58 | inactive | 
CCCCCCC(=O)Oc1c(OC)ccc2cc3[n+](cc12)CCc1cc2c(cc1-3)OCO2 | 1.16 | inactive | 
CCCCC(=O)Oc1c(OC)ccc2cc3[n+](cc12)CCc1cc2c(cc1-3)OCO2 | 0.1 | inactive | 
COc1ccc2cc3[n+](cc2c1OC(=O)/C=C/c1ccccc1)CCc1cc2c(cc1-3)OCO2 | 1.03 | inactive | 
CCCCCCCC(=O)Oc1c(OC)ccc2cc3[n+](cc12)CCc1cc2c(cc1-3)OCO2 | 1.69 | inactive | 
COc1ccc2cc3[n+](cc2c1OCOC(=O)c1ccccc1)CCc1cc2c(cc1-3)OCO2 | 0.97 | inactive | 
CCCCCCCCCC(=O)Oc1c(OC)ccc2cc3[n+](cc12)CCc1cc2c(cc1-3)OCO2 | 2.74 | inactive | 
CCCCCCCCCCCCCCCC(=O)Oc1c(OC)ccc2cc3[n+](cc12)CCc1cc2c(cc1-3)OCO2.[Cl-] | 5.91 | inactive | Activity (Rattus norvegicus [4]): Non-toxic; Activity (Rattus norvegicus [2]): 45.5%; Activity (Rattus norvegicus [3]): 35.8%; Activity (Rattus norvegicus [5]): Non-toxic; Activity (Rattus norvegicus [6]): Non-toxic
CCCCCCCCCCCCCCCCCC(=O)Oc1c(OC)ccc2cc3[n+](cc12)CCc1cc2c(cc1-3)OCO2 | 6.98 | inactive | 
COc1ccc2cc3[n+](cc2c1O)CCc1cc2c(cc1-3)OCO2 [BERBERRUBINE CHLORIDE] | -1.06 |  | 
CCCCCCCCCCCC(=O)Oc1c(OC)ccc2cc3[n+](cc12)CCc1cc2c(cc1-3)OCO2 | 3.8 | inactive | 

Now from value to compound, other results behind:

logP [1] | Structure (SMILES) | Activity (HepG2) | other results
-0.43 | CCCC(=O)Oc1c(OC)ccc2cc3[n+](cc12)CCc1cc2c(cc1-3)OCO2 | inactive | 
-1.18 | CCOC(=O)Oc1c(OC)ccc2cc3[n+](cc12)CCc1cc2c(cc1-3)OCO2 | inactive | 
-0.25 | COc1ccc2cc3[n+](cc2c1OC(=O)C(C)(C)C)CCc1cc2c(cc1-3)OCO2 | inactive | 
-0.92 | COc1ccc2cc3[n+](cc2c1OC)CCc1cc2c(cc1-3)OCO2.[Cl-] [BERBERINE CHLORIDE] |  | Activity (Rattus norvegicus [2]): 38%; Activity (Rattus norvegicus [3]): 27.4%
-0.06 | COc1ccc2cc3[n+](cc2c1OCOC(=O)C(C)(C)C)CCc1cc2c(cc1-3)OCO2 | inactive | 
